# PubChem BioAssay (NCI)
# Values joined by “and” are separate entries in the source; they are usually repeats but may differ in a detail not shown here. Equal entries are not always repeated.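 The compound was tested at five concentrations on cells cultured in 96-well plates, with a 48-hour exposure period. At the GI50, growth is halved. At the TGI there is no net growth.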
# What was measured:
# Assay in all cases: NCI tumour cell line growth inhibition, 48 h
# U251 CNS = tested on: U251 CNS
# OVCAR-5 ovarian = tested on: OVCAR-5 ovarian
# UACC-257 melanoma = tested on: UACC-257 melanoma
# COLO 205 colon = tested on: COLO 205 colon
# HCT-116 colon = tested on: HCT-116 colon
# MDA-MB-435 = tested on: MDA-MB-435
# SF-539 CNS = tested on: SF-539 CNS
# T-47D breast = tested on: T-47D breast
# OVCAR-8 ovarian = tested on: OVCAR-8 ovarian
# SNB-75 CNS = tested on: SNB-75 CNS
# BT-549 breast = tested on: BT-549 breast
# SN12C renal = tested on: SN12C renal
# OVCAR-3 ovarian = tested on: OVCAR-3 ovarian
# SF-295 CNS = tested on: SF-295 CNS
# HT29 colon = tested on: HT29 colon
# SK-MEL-5 melanoma = tested on: SK-MEL-5 melanoma
# 786-0 renal = tested on: 786-0 renal
# NCI-H460 lung = tested on: NCI-H460 lung
# UO-31 renal = tested on: UO-31 renal
# NCI-H23 lung = tested on: NCI-H23 lung
# RPMI-8226 leukemia = tested on: RPMI-8226 leukemia
# NCI/ADR-RES ovarian = tested on: NCI/ADR-RES ovarian
# CAKI-1 renal = tested on: CAKI-1 renal
# SW-620 colon = tested on: SW-620 colon
# HCT-15 colon = tested on: HCT-15 colon
# RXF 393 renal = tested on: RXF 393 renal
# SK-OV-3 ovarian = tested on: SK-OV-3 ovarian
# A549 NSCLC = tested on: A549 NSCLC
# HS 578T breast = tested on: HS 578T breast
# MDA-MB-231 breast = tested on: MDA-MB-231 breast
# KM12 colon = tested on: KM12 colon
# SR leukemia = tested on: SR leukemia
# NCI-H522 lung = tested on: NCI-H522 lung
# NCI-H226 lung = tested on: NCI-H226 lung
# HOP-92 NSCLC = tested on: HOP-92 NSCLC
# HL-60(TB) leukemia = tested on: HL-60(TB) leukemia
# DU-145 prostate = tested on: DU-145 prostate
# TK-10 renal = tested on: TK-10 renal
# SNB-19 CNS = tested on: SNB-19 CNS
# ACHN renal = tested on: ACHN renal
# OVCAR-4 ovarian = tested on: OVCAR-4 ovarian
# CCRF-CEM leukemia = tested on: CCRF-CEM leukemia
# HCC-2998 colon = tested on: HCC-2998 colon
# SK-MEL-2 melanoma = tested on: SK-MEL-2 melanoma
# SF-268 CNS = tested on: SF-268 CNS
# PC-3 prostate = tested on: PC-3 prostate
# K-562 leukemia = tested on: K-562 leukemia
# LOX IMVI melanoma = tested on: LOX IMVI melanoma
# EKVX NSCLC = tested on: EKVX NSCLC
# SK-MEL-28 melanoma = tested on: SK-MEL-28 melanoma
# IGROV1 ovarian = tested on: IGROV1 ovarian
# UACC-62 melanoma = tested on: UACC-62 melanoma
# HOP-62 NSCLC = tested on: HOP-62 NSCLC
# M14 melanoma = tested on: M14 melanoma
# A498 renal = tested on: A498 renal
# MOLT-4 leukemia = tested on: MOLT-4 leukemia
# MCF7 breast = tested on: MCF7 breast
# MALME-3M melanoma = tested on: MALME-3M melanoma
structure (smiles),measurement,setting,value
Cc1nccn1CC1CCc2c(c3ccccc3n2C)C1=O (configuration not stated),GI50,U251 CNS,81000 nM
same,GI50,OVCAR-5 ovarian,95300 nM
same,GI50,UACC-257 melanoma,42300 nM
same,TGI,UACC-257 melanoma,64300 nM
same,GI50,COLO 205 colon,78700 nM
same,GI50,HCT-116 colon,65600 nM
same,GI50,MDA-MB-435,90200 nM
same,GI50,SF-539 CNS,73700 nM
same,GI50,T-47D breast,71100 nM
same,GI50,OVCAR-8 ovarian,49800 nM
same,GI50,SNB-75 CNS,56500 nM
same,GI50,BT-549 breast,77300 nM
same,GI50,SN12C renal,87900 nM
same,GI50,OVCAR-3 ovarian,90300 nM
same,GI50,SF-295 CNS,39100 nM
same,TGI,SF-295 CNS,60900 nM
same,GI50,HT29 colon,27900 nM
same,TGI,HT29 colon,49200 nM
same,GI50,SK-MEL-5 melanoma,66800 nM
same,GI50,786-0 renal,78800 nM
same,GI50,NCI-H460 lung,45700 nM
same,TGI,NCI-H460 lung,68100 nM
same,GI50,UO-31 renal,78500 nM
CCOC(=O)c1cc2c(n1Cc1cc(OC)cc(OC)c1)-c1oncc1CC2,GI50,NCI-H23 lung,307 nM
same,TGI,NCI-H23 lung,> 100000 nM
same,GI50,U251 CNS,262 nM
same,TGI,U251 CNS,> 100000 nM
same,GI50,OVCAR-5 ovarian,474 nM
same,TGI,OVCAR-5 ovarian,> 100000 nM
same,GI50,RPMI-8226 leukemia,354 nM
same,TGI,RPMI-8226 leukemia,> 35400 nM
same,GI50,NCI/ADR-RES ovarian,48.6 nM
same,GI50,CAKI-1 renal,102 nM
same,TGI,CAKI-1 renal,> 100000 nM
same,GI50,SW-620 colon,85.9 nM
same,TGI,SW-620 colon,> 100000 nM
same,GI50,UACC-257 melanoma,47000 nM
same,TGI,UACC-257 melanoma,> 100000 nM
same,GI50,HCT-15 colon,130 nM
same,TGI,HCT-15 colon,> 100000 nM
same,GI50,COLO 205 colon,182 nM
same,TGI,COLO 205 colon,616 nM
same,GI50,RXF 393 renal,136 nM
same,TGI,RXF 393 renal,> 100000 nM
same,GI50,HCT-116 colon,157 nM
same,TGI,HCT-116 colon,> 100000 nM
same,GI50,SK-OV-3 ovarian,309 nM
same,TGI,SK-OV-3 ovarian,> 100000 nM
same,GI50,A549 NSCLC,270 nM
same,TGI,A549 NSCLC,> 100000 nM
same,GI50,HS 578T breast,156 nM
same,TGI,HS 578T breast,> 96200 nM
same,GI50,MDA-MB-231 breast,1090 nM
same,TGI,MDA-MB-231 breast,> 95800 nM
same,GI50,KM12 colon,81.6 nM
same,TGI,KM12 colon,> 59500 nM
same,GI50,SR leukemia,47.5 nM
same,TGI,SR leukemia,> 36800 nM
same,GI50,NCI-H522 lung,40.4 nM
same,TGI,NCI-H522 lung,> 91500 nM
same,GI50,NCI-H226 lung,2750 nM
same,TGI,NCI-H226 lung,> 100000 nM
same,GI50,HOP-92 NSCLC,45200 nM
same,TGI,HOP-92 NSCLC,> 100000 nM
same,GI50,HL-60(TB) leukemia,63.4 nM
same,TGI,HL-60(TB) leukemia,1150 nM
same,GI50,SF-539 CNS,243 nM
same,TGI,SF-539 CNS,4580 nM
same,GI50,DU-145 prostate,216 nM
same,TGI,DU-145 prostate,25700 nM
same,GI50,TK-10 renal,3580 nM
same,TGI,TK-10 renal,> 100000 nM
same,GI50,T-47D breast,31100 nM
same,TGI,T-47D breast,> 100000 nM
same,GI50,OVCAR-8 ovarian,475 nM
same,TGI,OVCAR-8 ovarian,> 100000 nM
same,GI50,SNB-75 CNS,111 nM
same,TGI,SNB-75 CNS,> 100000 nM
same,GI50,SNB-19 CNS,544 nM
same,TGI,SNB-19 CNS,> 100000 nM
same,GI50,ACHN renal,2220 nM
same,TGI,ACHN renal,> 100000 nM
same,GI50,BT-549 breast,4370 nM
same,TGI,BT-549 breast,> 100000 nM
same,GI50,SN12C renal,994 nM
same,TGI,SN12C renal,> 100000 nM
same,GI50,OVCAR-4 ovarian,1060 nM
same,TGI,OVCAR-4 ovarian,> 100000 nM
same,GI50,CCRF-CEM leukemia,215 nM
same,TGI,CCRF-CEM leukemia,> 100000 nM
same,GI50,HCC-2998 colon,411 nM
same,TGI,HCC-2998 colon,> 100000 nM
same,GI50,SK-MEL-2 melanoma,> 100000 nM
same,TGI,SK-MEL-2 melanoma,> 100000 nM
same,GI50,OVCAR-3 ovarian,38.9 nM
same,TGI,OVCAR-3 ovarian,197 nM
same,GI50,SF-268 CNS,3180 nM
same,TGI,SF-268 CNS,> 100000 nM
same,GI50,PC-3 prostate,383 nM
same,TGI,PC-3 prostate,> 100000 nM
same,GI50,K-562 leukemia,51.8 nM
same,TGI,K-562 leukemia,> 100000 nM
same,GI50,SF-295 CNS,51.8 nM
same,GI50,HT29 colon,73 nM
same,TGI,HT29 colon,> 100000 nM
same,GI50,LOX IMVI melanoma,593 nM
same,TGI,LOX IMVI melanoma,> 100000 nM
same,GI50,EKVX NSCLC,320 nM
same,TGI,EKVX NSCLC,> 100000 nM
same,GI50,SK-MEL-28 melanoma,250 nM
same,TGI,SK-MEL-28 melanoma,> 100000 nM
same,GI50,IGROV1 ovarian,226 nM
same,TGI,IGROV1 ovarian,> 100000 nM
same,GI50,SK-MEL-5 melanoma,82.7 nM
same,TGI,SK-MEL-5 melanoma,20300 nM
same,GI50,UACC-62 melanoma,403 nM
same,TGI,UACC-62 melanoma,> 100000 nM
same,GI50,HOP-62 NSCLC,327 nM
same,TGI,HOP-62 NSCLC,> 100000 nM
same,GI50,M14 melanoma,163 nM
same,TGI,M14 melanoma,> 100000 nM
same,GI50,A498 renal,53.2 nM
same,TGI,A498 renal,779 nM
same,GI50,MOLT-4 leukemia,525 nM
same,TGI,MOLT-4 leukemia,> 100000 nM
same,GI50,786-0 renal,499 nM
same,TGI,786-0 renal,> 100000 nM
same,GI50,NCI-H460 lung,139 nM
same,TGI,NCI-H460 lung,> 37800 nM
same,GI50,UO-31 renal,6370 nM
same,TGI,UO-31 renal,> 100000 nM
same,GI50,MCF7 breast,49.2 nM
same,TGI,MCF7 breast,> 100000 nM
CN1/C(=C/C=C/c2n(Cc3ccc4ccccc4c3)c(Cl)c(Cl)[n+]2Cc2ccc3ccccc3c2)Oc2ccccc21,GI50,MALME-3M melanoma,201 nM
same,TGI,MALME-3M melanoma,625 nM
same,GI50,OVCAR-5 ovarian,373 nM
same,TGI,OVCAR-5 ovarian,1590 nM
same,GI50,CAKI-1 renal,553 nM
same,TGI,CAKI-1 renal,1830 nM
same,GI50,SW-620 colon,294 nM
same,TGI,SW-620 colon,1150 nM
same,GI50,UACC-257 melanoma,338 nM
same,TGI,UACC-257 melanoma,1440 nM
same,GI50,HCT-15 colon,1240 nM
same,TGI,HCT-15 colon,2680 nM
same,GI50,HCT-116 colon,255 nM
same,TGI,HCT-116 colon,1080 nM
same,GI50,HOP-92 NSCLC,212 nM
same,TGI,HOP-92 NSCLC,685 nM
same,GI50,MDA-MB-435,327 nM
same,TGI,MDA-MB-435,1090 nM
same,GI50,DU-145 prostate,403 nM
same,TGI,DU-145 prostate,1540 nM
same,GI50,SNB-75 CNS,176 nM
same,TGI,SNB-75 CNS,731 nM
same,GI50,ACHN renal,494 nM
same,TGI,ACHN renal,1670 nM
same,GI50,SK-MEL-28 melanoma,505 nM
same,TGI,SK-MEL-28 melanoma,1750 nM
same,GI50,A498 renal,198 nM
same,TGI,A498 renal,756 nM
same,GI50,UO-31 renal,1350 nM
same,TGI,UO-31 renal,2650 nM
COc1cccc(/C=C/C(=O)N2CC(CCl)c3c2cc(N)c2ccccc32)c1 (configuration not stated),TGI,NCI-H23 lung,12.4 nM
same,TGI,U251 CNS,370 nM
same,TGI,OVCAR-5 ovarian,1500 nM
same,TGI,RPMI-8226 leukemia,> 100000 nM
same,TGI,SW-620 colon,> 100000 nM
same,TGI,HCT-15 colon,224 nM
same,TGI,RXF 393 renal,3.42 nM
same,TGI,HCT-116 colon,1270 nM
same,TGI,SK-OV-3 ovarian,1160 nM
same,TGI,HS 578T breast,40.9 nM
same,TGI,KM12 colon,35.2 nM and 161 nM
same,TGI,NCI-H522 lung,8.89 nM
same,TGI,NCI-H226 lung,42.5 nM
same,TGI,T-47D breast,3590 nM
same,TGI,SNB-75 CNS,15.3 nM
same,TGI,SNB-19 CNS,> 100000 nM
same,TGI,ACHN renal,2.4 nM
same,GI50,BT-549 breast,14.2 nM
same,TGI,OVCAR-4 ovarian,141 nM
same,TGI,HCC-2998 colon,16.6 nM
same,TGI,SK-MEL-2 melanoma,22.4 nM
same,TGI,OVCAR-3 ovarian,1720 nM
same,TGI,PC-3 prostate,56.2 nM and 132 nM
same,TGI,K-562 leukemia,> 100000 nM
same,TGI,SF-295 CNS,9.53 nM
same,TGI,HT29 colon,20000 nM
same,TGI,LOX IMVI melanoma,6.5 nM
same,TGI,EKVX NSCLC,145 nM and 41.5 nM
same,TGI,UACC-62 melanoma,22.4 nM
same,TGI,M14 melanoma,105 nM
same,TGI,A498 renal,34.2 nM
same,TGI,NCI-H460 lung,3.25 nM
same,TGI,UO-31 renal,> 100000 nM
same,TGI,MCF7 breast,5.68 nM
